Patent US11459306B2, “Compounds, compositions, and methods for treating T-cell acute lymphoblastic leukemia” (The Trustees of Columbia University in the City of New York, priority 2017, dated 2022)

Columns and labels:
[1] = system: human primary T-ALL cells; assay: Akt phosphorylation and pro-apoptotic pathways in human primary T-ALL cells; assay type: cell-based
[2] = system: T-ALL; assay: Tumor burden and survival of mice with T-ALL; assay type: in vivo
[3] = system: mouse PTEN null/NOTCH activated T-ALL cell line; assay: Gene set enrichment analysis of murine T-ALL disease signature after drug treatment; assay type: cell-based; conditions: GSEA of T-ALL disease signature
Description: This was also accomplished by generating gene expression signatures to assess the effects of drug treatment. Global gene expression profiles were obtained in triplicate using a mouse PTEN null/NOTCH activated T-ALL cell line driven by over expression of the transcription factor LMO2. […] Tumor cells were cultured in the presence of CAL-130 (2.5 μM) or the gamma-secretase inhibitor (GSI) Compound E (1 μM). Compound E blocks the activity of NOTCH1, which is also believed to support T-ALL tumor formation, proliferation, and survival. Drug treated cells were harvested at time points known to affect the expression of the proto-oncogene cMyc (12 hours and 48 hours, respectively), a master regulator of cell growth, metabolism and survival. A Venn diagram was created to illustrate the overlap in genes altered by either PI3Kγ/δ blockade (red circle) or GSI (green circle) using a false discovery rate (FDR) of 0.0005 as cut off (FIG. 1A). Of note, ten-fold more genes were affected following PI3Kγ/δ blockade, including the majority (˜62%) of genes altered by GSI monotherapy, a highly significant finding (Fisher's exact test, P<2.2×10^−16).
A murine T-ALL disease signature was further defined by ranking all genes based on their differential expression in T-ALL samples compared to wild type murine thymocytes. […]

[4] = target: T1, PIK3CD (Homo sapiens, UniProt O00329); assay: KINOMEscan competition binding assay (DiscoverX); conditions: DiscoveRx gene symbol PIK3CD (b251 prints: PI3Kγ)
T1 construct: purchased DiscoverX (KINOMEscan); host or cells: E. coli BL21-derived host (T7 phage) or HEK-293
T1 sequence (O00329 1-1044): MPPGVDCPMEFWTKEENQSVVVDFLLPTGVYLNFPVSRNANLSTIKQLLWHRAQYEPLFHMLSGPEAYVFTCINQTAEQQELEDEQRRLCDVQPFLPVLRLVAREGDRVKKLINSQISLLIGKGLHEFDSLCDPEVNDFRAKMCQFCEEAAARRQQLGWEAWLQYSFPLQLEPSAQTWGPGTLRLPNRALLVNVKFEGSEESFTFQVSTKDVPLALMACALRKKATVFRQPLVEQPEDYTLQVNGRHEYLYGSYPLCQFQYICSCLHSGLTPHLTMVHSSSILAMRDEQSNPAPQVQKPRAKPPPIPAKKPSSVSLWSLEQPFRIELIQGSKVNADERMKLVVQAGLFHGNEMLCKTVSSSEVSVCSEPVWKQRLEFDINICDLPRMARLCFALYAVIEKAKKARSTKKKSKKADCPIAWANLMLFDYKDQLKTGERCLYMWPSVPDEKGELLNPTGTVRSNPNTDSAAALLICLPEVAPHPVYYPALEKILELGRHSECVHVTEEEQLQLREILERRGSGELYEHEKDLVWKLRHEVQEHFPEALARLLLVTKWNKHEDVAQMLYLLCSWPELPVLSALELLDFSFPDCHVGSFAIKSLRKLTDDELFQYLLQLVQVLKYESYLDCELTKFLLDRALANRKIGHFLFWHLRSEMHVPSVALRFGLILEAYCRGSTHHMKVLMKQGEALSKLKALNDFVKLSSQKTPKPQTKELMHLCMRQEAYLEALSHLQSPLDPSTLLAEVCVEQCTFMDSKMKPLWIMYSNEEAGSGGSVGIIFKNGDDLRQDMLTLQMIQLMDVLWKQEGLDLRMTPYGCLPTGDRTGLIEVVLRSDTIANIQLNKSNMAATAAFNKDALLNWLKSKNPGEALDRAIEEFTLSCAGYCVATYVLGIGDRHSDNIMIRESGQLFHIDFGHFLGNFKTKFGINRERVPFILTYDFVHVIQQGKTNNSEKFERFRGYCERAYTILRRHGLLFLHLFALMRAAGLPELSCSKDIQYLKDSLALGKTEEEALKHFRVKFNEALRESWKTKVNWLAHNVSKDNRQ
Description: (§1) The compounds were tested using KINOMEscan™ (DiscoverX), which is based on a competition binding assay that quantitatively measures the ability of a compound to compete with an immobilized, active-site directed ligand. The assay is performed by combining three components: DNA-tagged kinase; immobilized ligand; and a test compound. The ability of the test compound to compete with the immobilized ligand is measured via quantitative PCR of the DNA tag.
(§2) For most assays, kinase-tagged T7 phage strains were prepared in an E. coli host derived from the BL21 strain. E. coli were grown to log-phase and infected with T7 phage and incubated with shaking at 32° C. until lysis. The lysates were centrifuged and filtered to remove cell debris. The remaining kinases were produced in HEK-293 cells and subsequently tagged with DNA for qPCR detection. Streptavidin-coated magnetic beads were treated with biotinylated small molecule ligands for 30 minutes at room temperature to generate affinity resins for kinase assays. The liganded beads were blocked with excess biotin and washed with blocking buffer (SeaBlock (Pierce), 1% BSA, 0.05% Tween 20, 1 mM DTT) to remove unbound ligand and to reduce non-specific binding. Binding reactions were assembled by combining kinases, liganded affinity beads, and test compounds in 1× binding buffer (20% SeaBlock, 0.17×PBS, 0.05% Tween 20, 6 mM DTT). Test compounds were prepared as 111× stocks in 100% DMSO. Kds were determined using an 11-point 3-fold compound dilution series with three DMSO control points. All compounds for Kd measurements are distributed by acoustic transfer (non-contact dispensing) in 100% DMSO. The compounds were then diluted directly into the assays such that the final concentration of DMSO was 0.9%. All reactions performed in polypropylene 384-well plate. Each was a final volume of 0.02 ml. The assay plates were incubated at room temperature with shaking for 1 hour and the affinity beads were washed with wash buffer (1×PBS, 0.05% Tween 20). The beads were then re-suspended in elution buffer (1×PBS, 0.05% Tween 20, 0.5 μM non-biotinylated affinity ligand) and incubated at room temperature with shaking for 30 minutes. The kinase concentration in the eluates was measured by qPCR.
(§3) An 11-point 3-fold serial dilution of each test compound was prepared in 100% DMSO at 100× final test concentration and subsequently diluted to 1× in the assay (final DMSO concentration=1%). Most Kds were determined using a compound top concentration=30,000 nM. If the initial Kd determined was <0.5 nM (the lowest concentration tested), the measurement was repeated with a serial dilution starting at a lower top concentration.
(§4) Binding constants (Kds) were calculated with a standard dose-response curve using the Hill equation: […]
(§5) The Hill Slope was set to −1. Curves were fitted using a non-linear least square fit with the Levenberg-Marquardt algorithm.

[5] = target: T2, PIK3CG (Homo sapiens, UniProt P48736); assay: KINOMEscan competition binding assay (DiscoverX); conditions: DiscoveRx gene symbol PIK3CG (b251 prints: PI3Kδ)
T2 construct: purchased DiscoverX (KINOMEscan); host or cells: E. coli BL21-derived host (T7 phage) or HEK-293
Description: as §1, §2, §3, §4, §5

[6] = target: T3, PIK3CB (PI3Kβ) (Homo sapiens, UniProt P42338); assay: KINOMEscan competition binding assay (DiscoverX); conditions: DiscoveRx gene symbol PIK3CB (PI3Kβ)
T3 construct: purchased DiscoverX (KINOMEscan); host or cells: E. coli BL21-derived host (T7 phage) or HEK-293
Description: as §1, §2, §3, §4, §5

[7] = target: T4, PIK3CA (PI3Kα) (Homo sapiens, UniProt P42336); assay: KINOMEscan competition binding assay (DiscoverX); conditions: DiscoveRx gene symbol PIK3CA (PI3Kα)
T4 construct: purchased DiscoverX (KINOMEscan); host or cells: E. coli BL21-derived host (T7 phage) or HEK-293
Description: as §1, §2, §3, §4, §5

[8] = Pharmacokinetics relative to CAL-130; assay type: in vivo
[9] = system: T-ALL cell line; assay: T-ALL cell viability / cell death; assay type: cell-based, murine
Description: Compounds DWL-PI3K-1, DWL-PI3K-2, DWL-PI3K-3, DWL-PI3K-4, DWL-PI3K-5, DWL-PI3K-6 and DWL-PI3K-7, and reference compounds CAL-130, tenalisib, duvelisib were evaluated for efficacy (cell viability by measuring ATP (CellTiter-Glo) or propidium iodide (PI) uptake) against a number of cancer cells, including LMO-2-007, OCI-LY-10, HH, H9, PF382 and CCRF-CEM.

[10] = system: murine PTEN null T-ALL cell line lacking both p110γ and p110δ catalytic domains; assay: Killing of T-ALL cell line lacking p110γ and p110δ; assay type: cell-based; conditions: selectivity control line
Text: Compounds described herein also appear to be selective for p110 catalytic domains of PI3Kγ and PI3Kδ as treatment, for example, of a T-ALL cell line lacking these two p110 isoforms results in limited cell killing.

T4 sequence (P42336 whole entry): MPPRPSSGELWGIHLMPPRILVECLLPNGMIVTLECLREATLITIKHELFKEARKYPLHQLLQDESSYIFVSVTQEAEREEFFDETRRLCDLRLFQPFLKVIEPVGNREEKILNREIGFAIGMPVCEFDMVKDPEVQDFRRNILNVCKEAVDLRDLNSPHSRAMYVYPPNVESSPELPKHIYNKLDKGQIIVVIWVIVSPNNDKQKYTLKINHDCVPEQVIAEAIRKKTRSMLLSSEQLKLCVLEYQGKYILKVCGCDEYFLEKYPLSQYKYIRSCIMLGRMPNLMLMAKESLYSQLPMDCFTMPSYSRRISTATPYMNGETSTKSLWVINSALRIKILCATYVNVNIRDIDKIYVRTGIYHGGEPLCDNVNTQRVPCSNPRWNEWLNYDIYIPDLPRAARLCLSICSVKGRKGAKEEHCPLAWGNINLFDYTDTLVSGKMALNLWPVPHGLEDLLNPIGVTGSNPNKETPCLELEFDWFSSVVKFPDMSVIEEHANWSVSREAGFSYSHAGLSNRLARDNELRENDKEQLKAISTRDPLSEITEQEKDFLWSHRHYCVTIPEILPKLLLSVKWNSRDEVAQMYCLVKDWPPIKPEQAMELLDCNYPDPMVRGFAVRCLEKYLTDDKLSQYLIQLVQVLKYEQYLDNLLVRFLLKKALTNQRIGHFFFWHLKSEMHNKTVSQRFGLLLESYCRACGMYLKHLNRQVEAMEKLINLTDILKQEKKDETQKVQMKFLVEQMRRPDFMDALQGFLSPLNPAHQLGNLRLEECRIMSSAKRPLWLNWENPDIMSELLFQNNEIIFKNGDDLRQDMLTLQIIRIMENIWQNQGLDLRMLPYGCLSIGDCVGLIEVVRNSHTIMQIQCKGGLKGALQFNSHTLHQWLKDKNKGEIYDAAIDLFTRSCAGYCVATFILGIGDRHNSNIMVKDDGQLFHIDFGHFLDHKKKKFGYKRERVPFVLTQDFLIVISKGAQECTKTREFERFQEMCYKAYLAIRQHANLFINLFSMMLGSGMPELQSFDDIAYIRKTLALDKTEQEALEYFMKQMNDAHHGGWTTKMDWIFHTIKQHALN
T2 sequence (P48736 whole entry): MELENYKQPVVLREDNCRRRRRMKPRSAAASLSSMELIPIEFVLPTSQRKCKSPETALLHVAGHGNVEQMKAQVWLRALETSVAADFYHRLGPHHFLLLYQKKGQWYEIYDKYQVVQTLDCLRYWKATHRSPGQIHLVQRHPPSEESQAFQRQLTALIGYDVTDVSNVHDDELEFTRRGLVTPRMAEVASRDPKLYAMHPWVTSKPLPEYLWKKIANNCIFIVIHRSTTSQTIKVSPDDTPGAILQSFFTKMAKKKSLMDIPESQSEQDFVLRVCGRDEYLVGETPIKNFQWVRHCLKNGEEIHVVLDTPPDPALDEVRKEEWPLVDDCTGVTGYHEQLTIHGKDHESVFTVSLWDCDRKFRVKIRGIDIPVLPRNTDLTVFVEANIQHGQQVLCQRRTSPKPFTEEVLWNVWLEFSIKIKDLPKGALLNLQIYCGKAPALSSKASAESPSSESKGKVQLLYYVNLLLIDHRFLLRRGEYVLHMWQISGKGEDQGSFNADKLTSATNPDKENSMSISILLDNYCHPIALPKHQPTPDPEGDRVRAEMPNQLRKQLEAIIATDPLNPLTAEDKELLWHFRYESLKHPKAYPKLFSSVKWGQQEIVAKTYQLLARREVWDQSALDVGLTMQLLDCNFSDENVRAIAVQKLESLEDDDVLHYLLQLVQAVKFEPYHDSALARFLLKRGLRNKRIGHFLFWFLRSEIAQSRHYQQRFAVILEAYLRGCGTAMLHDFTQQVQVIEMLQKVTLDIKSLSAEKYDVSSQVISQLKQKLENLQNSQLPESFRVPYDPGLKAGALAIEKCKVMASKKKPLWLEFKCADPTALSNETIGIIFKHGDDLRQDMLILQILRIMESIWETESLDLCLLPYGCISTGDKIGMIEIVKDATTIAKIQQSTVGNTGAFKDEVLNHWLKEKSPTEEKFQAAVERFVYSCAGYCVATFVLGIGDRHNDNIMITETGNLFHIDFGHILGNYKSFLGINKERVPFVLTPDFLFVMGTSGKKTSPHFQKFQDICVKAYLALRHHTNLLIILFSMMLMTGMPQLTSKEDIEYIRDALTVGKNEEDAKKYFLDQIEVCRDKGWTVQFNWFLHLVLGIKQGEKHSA
T3 sequence (P42338 whole entry): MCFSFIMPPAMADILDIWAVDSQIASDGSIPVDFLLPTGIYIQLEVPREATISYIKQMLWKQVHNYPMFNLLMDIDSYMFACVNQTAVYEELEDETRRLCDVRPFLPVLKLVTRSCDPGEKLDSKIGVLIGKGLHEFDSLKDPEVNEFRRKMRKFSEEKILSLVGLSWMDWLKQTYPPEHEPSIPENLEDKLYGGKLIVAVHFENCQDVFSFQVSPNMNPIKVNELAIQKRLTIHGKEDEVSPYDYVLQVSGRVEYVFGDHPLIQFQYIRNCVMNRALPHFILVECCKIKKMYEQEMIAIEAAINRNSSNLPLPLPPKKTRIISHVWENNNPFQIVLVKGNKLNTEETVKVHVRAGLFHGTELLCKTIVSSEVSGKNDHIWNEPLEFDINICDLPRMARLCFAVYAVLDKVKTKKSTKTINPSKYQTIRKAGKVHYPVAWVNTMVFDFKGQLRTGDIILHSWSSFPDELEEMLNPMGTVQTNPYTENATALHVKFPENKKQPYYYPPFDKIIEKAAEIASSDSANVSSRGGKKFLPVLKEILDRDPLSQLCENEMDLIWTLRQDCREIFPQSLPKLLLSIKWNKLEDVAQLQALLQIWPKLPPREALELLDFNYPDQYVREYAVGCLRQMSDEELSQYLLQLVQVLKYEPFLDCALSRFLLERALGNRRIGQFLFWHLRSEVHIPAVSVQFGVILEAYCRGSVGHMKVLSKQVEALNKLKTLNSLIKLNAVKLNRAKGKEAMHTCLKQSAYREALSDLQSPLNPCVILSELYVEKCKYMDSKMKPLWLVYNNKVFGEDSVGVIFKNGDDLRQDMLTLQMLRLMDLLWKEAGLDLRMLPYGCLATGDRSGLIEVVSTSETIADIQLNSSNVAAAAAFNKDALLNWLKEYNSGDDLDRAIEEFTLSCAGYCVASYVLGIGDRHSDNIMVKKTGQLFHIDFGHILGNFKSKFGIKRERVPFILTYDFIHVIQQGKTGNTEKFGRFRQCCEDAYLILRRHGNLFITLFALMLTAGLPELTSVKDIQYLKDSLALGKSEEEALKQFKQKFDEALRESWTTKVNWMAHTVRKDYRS

Row | Kd [4] [nM] | Kd [5] [nM] | Kd [6] [nM] | Kd [7] [nM] | pharmacokinetics [8] | Compound | Akt phosphorylation and pro-apoptotic pathways [1] | effect on tumor burden and survival [2] | mean survival ([2]; 10 mg/kg tid) [days] | normalized enrichment score (NES) ([3]; 2.5 μM, 12 hours) | normalized enrichment score (NES) ([3]; 1 μM, 48 hours) | amount needed relative to CAL-130 to achieve a similar reduction in tumor cell survival [9] | cell killing of T-ALL cell line lacking p110γ and p110δ [10] | efficacy in inducing T-ALL cell death relative to CAL-130 ([9]; cultured T-ALL cells) | mean survival ([2]; 30 mg/kg tid) [days]
1 | 0.39 | 0.2 | 0.92 | 20 | better pharmacokinetics | Cc1ccccc1-n1c([C@H](C)Nc2nc(N)nc(N)c2C#N)nc2cccc(C)c2c1=O [DWL-PI3K-1, (S)-2,4-diamino-6-((1-(5-methyl-4-oxo-3-(o-tolyl)-3,4-dihydroquinazolin-2-yl)ethyl)amino)pyrimidine-5-carbonitrile] | – | – | – | – | – | about 10 fold less | – | – | –
2 | 0.042 | 0.089 | 0.15 | 2.2 | better pharmacokinetics | Cc1nc(N)nc(N[C@@H](C)c2cc3cccc(Cl)c3c(=O)n2-c2ccccc2)c1C#N [DWL-PI3K-4, (S)-2-amino-4-((1-(8-chloro-1-oxo-2-phenyl-1,2-dihydroisoquinolin-3-yl)ethyl)amino)-6-methylpyrimidine-5-carbonitrile] | – | – | – | – | – | about 10 fold less | limited killing | greater efficacy than CAL-130 | –
3 | 0.12 | 0.38 | 1.4 | 30 | better pharmacokinetics | C[C@H](Nc1nc(N)nc(N)c1C#N)c1cc2cccc(Cl)c2c(=O)n1-c1cc(F)cc(F)c1 [DWL-PI3K-5, (S)-2,4-diamino-6-(1-(8-chloro-2-(3,5-difluorophenyl)-1-oxo-1,2-dihydroisoquinolin-3-yl)ethylamino)pyrimidine-5-carbonitrile] | – | – | – | – | – | about 10 fold less | – | – | –
4 | 0.11 | 0.27 | 0.46 | 10 | better pharmacokinetics | C[C@H](Nc1nc(N)nc(N)c1C#N)c1cc2cccc(Cl)c2c(=O)n1-c1cccc(F)c1 [DWL-PI3K-6, (S)-2,4-diamino-6-((1-(8-chloro-2-(3-fluorophenyl)-1-oxo-1,2-dihydroisoquinolin-3-yl)ethyl)amino)pyrimidine-5-carbonitrile] | – | – | – | – | – | about 10 fold less | – | – | –
5 | 0.12 | 0.17 | 0.3 | 6.1 | better pharmacokinetics | [2H]c1c([2H])c([2H])c(-n2c([C@H](C)Nc3nc(N)nc(N)c3C#N)cc3cccc(Cl)c3c2=O)c([2H])c1[2H] [DWL-PI3K-7, (S)-2,4-diamino-6-((1-(8-chloro-1-oxo-2-(phenyl-d5)-1,2-dihydroisoquinolin-3-yl)ethyl)amino)pyrimidine-5-carbonitrile] | – | – | – | – | – | about 10 fold less | limited killing effect | – | –

More lines, now with the values behind:

Row | Compound | Kd [4] [nM] | Kd [5] [nM] | Kd [6] [nM] | Kd [7] [nM] | pharmacokinetics [8] | Akt phosphorylation and pro-apoptotic pathways [1] | effect on tumor burden and survival [2] | mean survival ([2]; 10 mg/kg tid) [days] | normalized enrichment score (NES) ([3]; 2.5 μM, 12 hours) | normalized enrichment score (NES) ([3]; 1 μM, 48 hours) | amount needed relative to CAL-130 to achieve a similar reduction in tumor cell survival [9] | cell killing of T-ALL cell line lacking p110γ and p110δ [10] | efficacy in inducing T-ALL cell death relative to CAL-130 ([9]; cultured T-ALL cells) | mean survival ([2]; 30 mg/kg tid) [days]
6 | Cc1ccccc1-n1c([C@H](C)Nc2nc(N)nc3[nH]cnc23)nc2cccc(C)c2c1=O [CAL-130] | – | – | – | – | – | abolished Akt phosphorylation and activated pro-apoptotic pathways | significantly reduced tumor burden and prolonged survival of diseased mice | 45 | −5.8 | – | – | – | – | –
7 | C[C@H](NC(=O)Cc1cc(F)cc(F)c1)C(=O)N[C@H]1N=C(c2ccccc2)c2ccccc2N(C)C1=O [Compound E] | – | – | – | – | – | – | – | – | – | −2.6 | – | – | – | –
8 | Cc1ccccc1-n1c([C@H](C)Nc2nc(N)nc(C)c2C#N)nc2cccc(C)c2c1=O [DWL-PI3K-2, (S)-2-amino-4-methyl-6-((1-(5-methyl-4-oxo-3-(o-tolyl)-3,4-dihydroquinazolin-2-yl)ethyl)amino)pyrimidine-5-carbonitrile] | 0.62 | 0.62 | 4.3 | 53 | better pharmacokinetics | – | – | – | – | – | about 10 fold less | – | – | –
9 | C[C@H](Nc1ncnc2nc[nH]c12)c1cc2cccc(Cl)c2c(=O)n1-c1ccccc1 [IPI-145] | – | – | – | – | – | – | not as effective in reducing tumor burden or in prolonging overall survival | – | – | – | – | – | – | 18
